These results are taken from publication PMC2650251 (Organic letters, 2008).

System in the first series: not given
Assay: not given
Conditions: cited from earlier work.
`N[C@@H](Cc1cc(F)c(O)c(F)c1)C(=O)O` [Compound 1, 3,5-difluorotyrosine]: the “side chain pKa” value is listed as 7.2.

Another series deals with T1, PTP1B (Homo sapiens, UniProt P18031).
T1 sequence (P18031 1-435): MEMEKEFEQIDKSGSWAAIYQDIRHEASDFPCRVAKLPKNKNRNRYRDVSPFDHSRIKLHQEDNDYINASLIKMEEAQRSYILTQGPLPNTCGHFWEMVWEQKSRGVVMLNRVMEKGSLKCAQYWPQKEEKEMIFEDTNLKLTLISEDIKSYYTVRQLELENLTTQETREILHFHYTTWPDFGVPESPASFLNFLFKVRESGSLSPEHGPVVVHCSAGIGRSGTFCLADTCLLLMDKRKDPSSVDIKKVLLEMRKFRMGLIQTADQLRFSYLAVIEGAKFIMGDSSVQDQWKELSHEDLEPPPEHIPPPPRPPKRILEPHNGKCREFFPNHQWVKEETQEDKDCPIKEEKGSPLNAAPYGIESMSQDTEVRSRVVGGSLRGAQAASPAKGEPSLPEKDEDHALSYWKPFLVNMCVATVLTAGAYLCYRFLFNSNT
The series is described as follows: Kinetic constants of pY peptides against PTP1B. In kind it is biochemical. Particulars: pH 7.4, peptide as substrate.
Turning to REYEFpYAA-NH2 [Peptide 9], the Km stood at 6 ± 0.7 µM, the kcat came out at 33 ± 1 s⁻¹ and the kcat/KM came out at 5.4e+06 M⁻¹ s⁻¹.
In the case of DDTYDpYAA-NH2 [Peptide 7], the Km is 14 ± 2 µM, the catalytic constant (kcat) worked out at 33 ± 1 s⁻¹ and the kcat/KM was 2.3e+06 M⁻¹ s⁻¹.
As for DDTF2YDpYAA-NH2 [Peptide 6], the Michaelis-Menten constant (Km) came out at 13 ± 3 µM, the kcat was determined as 36 ± 2 s⁻¹ and the kcat/KM worked out at 2.7e+06 M⁻¹ s⁻¹.
For DNLF2YpYWD-NH2 [Peptide 4] the same measures were 3.6 ± 0.4 µM, 36 ± 1 s⁻¹ and 1e+07 M⁻¹ s⁻¹.

As a reminder, the Km is the concentration of substrate that gives half-maximal velocity. By kcat is commonly meant the maximal rate divided by the concentration of active sites. In general, kcat/KM refers to the second-order rate constant that governs catalysis at low substrate concentration.
